US20220259593A1, “CONTROL OF MAMMALIAN GENE DOSAGE USING CRISPR” (The Regents of the University of California, priority 2019, published 2022)

Tested on: K562 CRISPRi cells
Test: Perturb-seq pooled growth measurement (sgRNA counts, growth phenotype γ, relative activity)
Format: cell-based, human
Conditions: sequencing read counts; for Perturb-seq pooled growth sgRNA counts, d5: 5 days of growth (day seven after transduction); for Perturb-seq pooled growth sgRNA counts, d10: 10 days of growth (day twelve after transduction); for Perturb-seq pooled growth sgRNA counts, T0: T0 = day two after transduction
Description: Finally, we sought to use intermediate-activity sgRNAs to explore relationships between expression levels of various genes and the resulting cellular phenotypes. To simultaneously measure gene expression levels and obtain rich phenotypes for a variety of sgRNA series, we used Perturb-seq, an experimental strategy that enables matched capture of the transcriptome and the identity of an expressed sgRNA for each individual cell in pools of cells (27, 31-33) (FIG. 12A). […] In addition to the single-cell transcriptomes, we measured bulk growth phenotypes conferred by sgRNAs in these cells.
To measure the growth rate defects conferred by each sgRNA for comparison with the transcriptional phenotypes, samples of 500,000 transduced cells were taken from the same transduced cell population used in the Perturb-seq experiment on days two, seven, and twelve after transduction. Genomic DNA was extracted using the Nucleospin Blood kit (Macherey-Nagel) and sgRNA amplicons were prepared as described previously and above (19), albeit with no genomic DNA digestion or gel purification, and sequenced on HiSeq 4000 as described above for the other screens. Growth phenotypes were calculated by comparing normalized sgRNA abundances at day seven and twelve to those at day two, as described above. […] Relative sgRNA activities measured at day seven (five days of growth) were used to assign sgRNA activities in further analysis.

Substance | Perturb-seq pooled growth sgRNA counts, d5 | Perturb-seq pooled growth sgRNA counts, d10 | Perturb-seq pooled growth sgRNA counts, T0
RPS18_+_33239917.23-P1P2_08: sgRNA targeting RPS18, GCTGCGATTCCGCTGGATCA, SEQ ID NO: 43 (listed as DNA, chemistry not fully specified) | 11101 | 13839 | 8535
HSPE1_+_198365089.23-P1P2_14: sgRNA targeting HSPE1, GGAGACTCGCAGTCCTGCCC, SEQ ID NO: 68 (listed as DNA, chemistry not fully specified) | 6501 | 6498 | 4808
RPL9_+_39460483.23-P1P2_01: sgRNA targeting RPL9, GGATGATTCTGTGCTCGTGG, SEQ ID NO: 51 (listed as DNA, chemistry not fully specified) | 1108 | 1238 | 4886
HSPA9_−_137911079.23-P1P2_02: sgRNA targeting HSPA9, GGAGTTGCGCGATGCGGTGG, SEQ ID NO: 133 (listed as DNA, chemistry not fully specified) | 1727 | 1872 | 4345
GATA1_−_48645022.23-P1P2_12: sgRNA targeting GATA1, GTGAGCTTGCCACATCCGCA, SEQ ID NO: 124 (listed as DNA, chemistry not fully specified) | 7289 | 11548 | 4081
ALDOA_+_30077139.23-P1P2_14: sgRNA targeting ALDOA, GGTCACCAGGACCGCTTCTG, SEQ ID NO: 159 (listed as DNA, chemistry not fully specified) | 5347 | 6076 | 3603
SEC61A1_−_127771295.23-P1_01: sgRNA targeting SEC61A1, GGCACTGTCGTGTCTCTCGG, SEQ ID NO: 85 (listed as DNA, chemistry not fully specified) | 4006 | 4229 | 5308
DUT_+_48624411.23-P1P2_01: sgRNA targeting DUT, GCCAGCGAGGAGACCACCGG, SEQ ID NO: 111 (listed as DNA, chemistry not fully specified) | 6764 | 3576 | 25227
HSPE1_+_198365089.23-P1P2_00: sgRNA targeting HSPE1, GGAGACTCGCAGTCCGGCCC, SEQ ID NO: 9 (listed as DNA, chemistry not fully specified) | 2348 | 1179 | 6813
GINS1_−_25388381.23-P1P2_06: sgRNA targeting GINS1, GGACTAGAACGGAAGGAGTG, SEQ ID NO: 95 (listed as DNA, chemistry not fully specified) | 1828 | 1219 | 11452
HSPA9_−_137911079.23-P1P2_08: sgRNA targeting HSPA9, GGAGCTGCTCGATGCGGTGG, SEQ ID NO: 134 (listed as DNA, chemistry not fully specified) | 2803 | 2726 | 3137
MTOR_+_11322547.23-P1P2_05: sgRNA targeting MTOR, GGGCAGGGGGCTTGAAGCGG, SEQ ID NO: 148 (listed as DNA, chemistry not fully specified) | 4083 | 3324 | 5595
RPL9_+_39460483.23-P1P2_04: sgRNA targeting RPL9, GGATGTTTCAGTGCTCGTGG, SEQ ID NO: 53 (listed as DNA, chemistry not fully specified) | 3975 | 4118 | 5237
EIF2S1_−_67827080.23-P1P2_07: sgRNA targeting EIF2S1, GAGCGAAGCGCTCGCTGAGG, SEQ ID NO: 140 (listed as DNA, chemistry not fully specified) | 13281 | 22309 | 6931
ATP5E_−_57607036.23-P1P2_14: sgRNA targeting ATP5E, GGTGTCCAGGGGCACTGTGT, SEQ ID NO: 155 (listed as DNA, chemistry not fully specified) | 10750 | 15257 | 4611
non-targeting_01040: non-targeting negative control sgRNA, GTACGGCATGGCGCACTGCG, SEQ ID NO: 170 (listed as DNA, chemistry not fully specified) [reference compound] | 0 | 0 | 0
ATP5E_−_57607036.23-P1P2_16: sgRNA targeting ATP5E, GGTGTCCAGGGGCGCTCTGT, SEQ ID NO: 153 (listed as DNA, chemistry not fully specified) | 9571 | 9964 | 6210
non-targeting_00001: non-targeting negative control sgRNA, GTGCACCCGGCTAGGACCGG, SEQ ID NO: 161 (listed as DNA, chemistry not fully specified) [reference compound] | 18946 | 31944 | 10415
ALDOA_+_30077139.23-P1P2_06: sgRNA targeting ALDOA, GGTCACCAGGATCCCTTCTG, SEQ ID NO: 157 (listed as DNA, chemistry not fully specified) | 4831 | 3500 | 6015
POLR2H_+_184081251.23-P1P2_08: sgRNA targeting POLR2H, GGGGCCACGCGAGCAGCAGA, SEQ ID NO: 116 (listed as DNA, chemistry not fully specified) | 3492 | 3869 | 6134
GINS1_−_25388381.23-P1P2_00: sgRNA targeting GINS1, GGACTAGAACGAAAGGAGTG, SEQ ID NO: 93 (listed as DNA, chemistry not fully specified) | 547 | 280 | 3621
TUBB_+_30688126.23-P1_03: sgRNA targeting TUBB, GCGGCAGCAAGGTTCTGAGA, SEQ ID NO: 108 (listed as DNA, chemistry not fully specified) | 1680 | 1221 | 4751
COX11_+_53045977.23-P1P2_03: sgRNA targeting COX11, GGCTCTGTCGTCCTGGATGG, SEQ ID NO: 142 (listed as DNA, chemistry not fully specified) | 16852 | 9184 | 11251
POLR2H_+_184081251.23-P1P2_12: sgRNA targeting POLR2H, GGGGCCACGAGAGCAGGAGA, SEQ ID NO: 117 (listed as DNA, chemistry not fully specified) | 4854 | 5996 | 5334
GNB2L1_+_180670873.23-P1P2_00: sgRNA targeting GNB2L1, GTGCAAGGCGGCGGCAGGAG, SEQ ID NO: 55 (listed as DNA, chemistry not fully specified) | 2456 | 1685 | 2280
RPL9_+_39460483.23-P1P2_00: sgRNA targeting RPL9, GGATGTTTCTGTGCTCGTGG, SEQ ID NO: 5 (listed as DNA, chemistry not fully specified) | 1141 | 1014 | 10355
RAN_+_131356438.23-P1P2_03: sgRNA targeting RAN, GGGGGTCGCTGCGCTTAGGG, SEQ ID NO: 71 (listed as DNA, chemistry not fully specified) | 6698 | 6816 | 5056
